In this experiment the target is T1, angiotensin converting enzyme (Rattus norvegicus, UniProt P47820).
T1 construct: from tissue; host or cells: rat blood plasma (ex vivo, after oral dosing)
T1 sequence (P47820 36-1238 limits assumed): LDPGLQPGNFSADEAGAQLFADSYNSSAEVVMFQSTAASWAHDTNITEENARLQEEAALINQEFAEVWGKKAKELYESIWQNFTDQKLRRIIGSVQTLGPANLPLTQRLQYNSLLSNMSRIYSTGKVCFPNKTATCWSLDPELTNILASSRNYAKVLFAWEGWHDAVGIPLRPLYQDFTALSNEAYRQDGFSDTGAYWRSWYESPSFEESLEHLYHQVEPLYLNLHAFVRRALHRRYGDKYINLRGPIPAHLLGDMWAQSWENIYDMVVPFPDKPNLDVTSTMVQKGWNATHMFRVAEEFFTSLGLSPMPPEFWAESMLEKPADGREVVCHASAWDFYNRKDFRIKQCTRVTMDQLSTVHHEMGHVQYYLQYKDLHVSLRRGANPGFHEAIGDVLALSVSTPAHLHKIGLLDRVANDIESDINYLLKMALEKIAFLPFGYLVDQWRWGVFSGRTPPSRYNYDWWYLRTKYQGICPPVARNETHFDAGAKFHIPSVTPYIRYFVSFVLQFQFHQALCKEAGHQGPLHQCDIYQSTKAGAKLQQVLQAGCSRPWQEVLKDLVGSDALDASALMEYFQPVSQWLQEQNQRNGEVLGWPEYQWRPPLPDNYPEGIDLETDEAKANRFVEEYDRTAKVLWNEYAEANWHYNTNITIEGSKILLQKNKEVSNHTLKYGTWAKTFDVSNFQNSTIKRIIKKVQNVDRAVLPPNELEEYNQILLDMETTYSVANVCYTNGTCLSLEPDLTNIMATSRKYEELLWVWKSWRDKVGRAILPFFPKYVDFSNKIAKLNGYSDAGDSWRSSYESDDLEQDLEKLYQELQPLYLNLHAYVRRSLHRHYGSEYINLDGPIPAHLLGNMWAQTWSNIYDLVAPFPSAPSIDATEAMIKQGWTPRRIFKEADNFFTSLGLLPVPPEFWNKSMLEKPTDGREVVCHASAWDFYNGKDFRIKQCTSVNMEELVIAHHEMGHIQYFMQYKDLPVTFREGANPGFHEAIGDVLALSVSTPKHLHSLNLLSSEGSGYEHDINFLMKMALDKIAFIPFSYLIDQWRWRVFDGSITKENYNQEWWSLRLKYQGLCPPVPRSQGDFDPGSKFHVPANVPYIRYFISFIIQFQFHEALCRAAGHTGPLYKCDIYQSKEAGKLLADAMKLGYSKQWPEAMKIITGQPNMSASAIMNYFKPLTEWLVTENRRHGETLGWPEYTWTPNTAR
The experiment is described as follows: inhibition of angiotensin converting enzyme ex vivo in rats (plasma before and 2 hours after oral administration, 14C-hippuryl-histidylleucine substrate). As to conditions: for angiotensin converting enzyme is inhibited in doses smaller than the captopril dose: compared with captopril dose; for ED50: rat, plasma 2 hours after administration, read-out: ED 50% (dose which produces 50% inhibition of angiotensin converting enzyme); for relative activity: relative to captopril = 1.00, from ED 50%. Here is the method: The following method was used in investigating the pharmacodynamic effect (inhibition of angiotensin converting enzyme ex vivo in rats):
Before, and 2 hours after, oral administration of the substance, blood was withdrawn from the animals, and the plasma was diluted 1:6 with H2 O. The diluted plasma (100 μl) was incubated with 50 μl of ^14 C-hippuryl-histidylleucine solution (K phosphate 260 mM, NaCl 938 mM, pH=8.3) for 1 hour at 37° C. The reaction was terminated by adding 2 ml of 0.1N HCl, and the product, ^14 C-hippuric acid, was extracted with toluene scintillator (PPO+POPOP+toluene+21% of isoamyl alcohol) and determined using a scintillation counter for liquids. After subtraction of the blank value (incubation time=0 minute), the percentage inhibition was determined from the enzymatic activities in the plasma before and after administration of the substance. The ED 50%, ie. the dose which produces 50% inhibition, is calculated from the individual inhibitory values by linear regression following logit-log transformation.

Structures are written as SMILES.

As for `O=C(SC[C@H](SC(=O)c1ccccc1)C(=O)N[C@@H](Cc1c[nH]c2ccccc12)C(=O)O)c1ccccc1` [Example 68, N-[(R)-2,3-Bis-(benzoylthio)-propionyl]-tryptophan], the “angiotensin converting enzyme is inhibited in doses smaller than the captopril dose” value is listed as 5 times smaller, the ED50 is 0.2 mg/kg and the relative activity is 5.0.
As to `C[C@H](NC(=O)[C@H](CSC(=O)c1ccccc1)SC(=O)c1ccccc1)C(=O)N1CCC[C@H]1C(=O)O` [Example 70, N-[(R)-2,3-Bis-(benzoylthio)-propionyl]-alanylproline], the “angiotensin converting enzyme is inhibited in doses smaller than the captopril dose” value is given as 5 times smaller, the ED50 was determined as 0.2 mg/kg and the relative activity turned out to be 5.0.

The values above are taken from patent US4500467A, “Benzoylthio compounds, their preparation and their use as drugs” (BASF Aktiengesellscaft, priority 1982, dated 1985).
